Measurements reported in PMC3526141 (Bioorganic & medicinal chemistry letters, 2012).

Biological target: Prostate-specific membrane antigen (PSMA) (Homo sapiens, UniProt Q04609)
Assay: inhibition of purified PSMA enzymatic activity
Type: biochemical

Chain of Prostate-specific membrane antigen (PSMA) (Q04609 whole entry): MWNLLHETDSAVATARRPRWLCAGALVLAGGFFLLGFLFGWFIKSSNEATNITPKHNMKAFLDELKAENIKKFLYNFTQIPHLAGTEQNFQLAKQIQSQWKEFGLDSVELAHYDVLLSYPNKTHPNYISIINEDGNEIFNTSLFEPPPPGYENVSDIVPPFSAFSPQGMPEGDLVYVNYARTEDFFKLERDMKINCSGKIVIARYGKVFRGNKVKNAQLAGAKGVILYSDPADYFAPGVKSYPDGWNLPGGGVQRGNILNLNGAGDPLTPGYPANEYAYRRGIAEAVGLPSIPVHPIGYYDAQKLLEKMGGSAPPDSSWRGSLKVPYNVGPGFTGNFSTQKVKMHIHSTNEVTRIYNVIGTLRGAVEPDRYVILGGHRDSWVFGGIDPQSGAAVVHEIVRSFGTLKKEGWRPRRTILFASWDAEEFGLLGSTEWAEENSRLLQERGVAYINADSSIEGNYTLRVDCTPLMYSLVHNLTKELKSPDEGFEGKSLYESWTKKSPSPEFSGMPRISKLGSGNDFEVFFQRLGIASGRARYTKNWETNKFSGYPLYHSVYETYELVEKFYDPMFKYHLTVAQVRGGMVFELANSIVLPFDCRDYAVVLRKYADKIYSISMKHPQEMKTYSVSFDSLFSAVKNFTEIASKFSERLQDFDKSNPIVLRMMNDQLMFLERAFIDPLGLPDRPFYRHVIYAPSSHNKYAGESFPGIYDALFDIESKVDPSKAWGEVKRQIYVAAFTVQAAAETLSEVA

Row | Substance | IC50 [nM]
1 | biotin-CTT54 | 1.21
2 | biotin-PEG4-CTT54 | 2.53
3 | biotin-PEG12-CTT54 | 10
